Test results as given in PMC8776995 (Frontiers in Chemistry, 2022).
Values joined by “and” are separate entries in the source; they are usually repeats but may differ in a detail not shown here. Identical values can stand only once.

Columns and labels:
[1] = system: AKT phosphorylation (S473) in PC-9 cells; test: Western blot, p-AKT/AKT in PC-9; conditions: for p-AKT/AKT: band density ratio; for p-AKT/AKT relative to DMSO: ratio normalised to DMSO = 1
Experimental: (§3) We also performed western blot analysis to evaluate the impact of e4 and e12 on EGFR signaling in PC-9 and H460 cells.
(§4) H460 cells were seeded in six-well plates with serum-free medium overnight, and then treated complete medium containing 0.1% DMSO, various concentrations (0.1, 1 and 10 μM) of either compound e4 or e12 for 2 h, respectively. […] Then the H460 cells were treated with complete medium containing EGF (10 ng/ml) for 5 min. Then the cells were harvested and washed with PBS, centrifuged, resuspended in 100–200 μl of RIPA lysis buffer containing Protease and Phosphatase Inhibitor Cocktail (1X), and then centrifuged for 5 min at 12,000 rpm at 4°C. The supernatant was used for protein analysis. […] Then the membrane was washed 5 min (X3) and incubated at 1:3,000 dilution of anti-rabbit secondary antibodies or 1:1,000 dilution of anti-mouse secondary antibodies for 1 h at RT. After washing with TBST 5 min (X3), protein bands were developed by chemiluminescence. The protein levels were quantified by the gray values of the bands in the resulting images by ImageJ, and the control group was used as the standard. […] The PC-9 cells were harvested and analyzed as above.

[2] = system: H460 cells; test: CCK-8 antiproliferation assay, H460; conditions: given as fraction, Repeat 1-3; for Inhibitory efficacy: H460 cells
[3] = system: AKT phosphorylation (S473) in H460 cells; test: Western blot, p-AKT/AKT in H460; conditions: for p-AKT/AKT: band density ratio; for p-AKT/AKT relative to DMSO: ratio normalised to DMSO
Experimental: as §3, §4

[4] = system: H460 cells; test: Flow cytometry detection for cell cycle, H460; assay type: cell-based, human; conditions: for G0/G1 / G2/M / S: single experiments (20200711, 20200810, 20200812)
Experimental: (§1) To investigate the effects of compounds e4 and e12 on various phases of the cell cycle, PC-9 cells were treated with compound e4 or e12 of various concentrations for 24 h, and H460 cells were treated with compound e4 or e12 of various concentrations for 12 h.
(§2) PC-9 or H460 (2 × 10^5–3 × 10^5/well) cells were seeded in six-well plates for 24 h, and then treated with 0.1% DMSO (as control), various concentrations of either compound e4 or e12 for 24 h (PC-9) or 12 h (H460), respectively. The treated cells were harvested, washed with PBS, and then stained using the cell-cycle staining kit according to the manufacturer’s manual. The distribution of cell-cycle phases with different DNA contents was determined by flow cytometry (BD LSRFortessa™ Flow Cytometer) and analyzed using ModFit LT software.

[5] = system: PC-9 cells; test: Flow cytometry detection for cell cycle, PC-9; assay type: cell-based, human; conditions: for G0/G1 / G2/M / S: single repeats (Repeat 1-3)
Experimental: as §1, §2

[6] = system: EGFR phosphorylation (Tyr1068) in PC-9 cells; test: Western blot, p-EGFR/EGFR in PC-9; conditions: for p-EGFR/EGFR: band density ratio; for p-EGFR/EGFR relative to DMSO: ratio normalised to DMSO = 1
Experimental: as §3, §4

[7] = system: PC-9 cells; test: Hoechst 33342 staining for cell apoptosis; assay type: cell-based, human; conditions: PC-9, various concentrations, 48 h, vs 0.1% DMSO
Experimental: To further verify the impact of compounds e4 and e12 on apoptosis of NSCLC cells, PC-9 cells were treated with either compound e4 or e12 at various concentrations for 48 h and then stained with dye Hoechst 33342.
PC-9 cells were seeded in 96-well plates, then treated with 0.1% DMSO (as control) or various concentrations of compound e4 or e12 for 48 h. Culture medium from the cells was removed and replaced with medium containing dye Hoechst 33342. Cells were incubated at 37°C for 5–15 min, washed with PBS twice, and then observed and imaged under the Nikon Ti-U microscope.

[8] = system: PC-9 cells; test: CCK-8 antiproliferation assay, PC-9; conditions: for Inhibitory efficacy: single repeats (Repeat 1-3), given as fraction

For `COCCOc1cc2ncnc(Nc3cccc(-c4cn(-c5ccc(C)cc5)nn4)c3)c2cc1OCCOC` [e12, [6,7-Bis-(2-methoxy-ethoxy)-quinazolin-4-yl]-[3-(1-p-tolyl-1H-[1,2,3]triazol-4-yl)-phenyl]-amine], the p-AKT/AKT ([1]; PC-9, 0.1 uM) was 0.5916, the “p-AKT/AKT relative to DMSO” value ([1]; PC-9, 0.1 uM) was 0.5679 and the p-AKT/AKT ([1]; PC-9, 1 uM) was 0.4098. For the same compound, the “p-AKT/AKT relative to DMSO” value ([1]; PC-9, 1 uM) was 0.3934, the p-AKT/AKT ([1]; PC-9, 10 uM) was 0.7398 and the “p-AKT/AKT relative to DMSO” value ([1]; PC-9, 10 uM) was 0.7102. The “phosphorylation of AKT (western blot)” value ([1]; PC-9, especially at 10 μM) was “suppressed”, the Inhibitory efficacy ([2]; 1uM) was 0.2117 and 0.1598 and the Inhibitory efficacy ([2]; 2uM) was 0.3397 and 0.3411. The Inhibitory efficacy ([2]; 4uM) was 0.5452 and 0.4421, the Inhibitory efficacy ([2]; 8uM) was 0.667 and 0.5743 and the Inhibitory efficacy ([2]; 16uM) was 0.9091 and 0.887. The inhibition at 1 µM ([2]; Homo sapiens, NCI-H460, read-out: Inhibitory efficacy, H460 cells, 1uM) was 16.7%, the inhibition at 2 µM ([2]; Homo sapiens, NCI-H460, read-out: Inhibitory efficacy, H460 cells, 2uM) was 36.8% and the inhibition at 4 µM ([2]; Homo sapiens, NCI-H460, read-out: Inhibitory efficacy, H460 cells, 4uM) was 58.9%. It also gave an inhibition at 8 µM ([2]; Homo sapiens, NCI-H460, read-out: Inhibitory efficacy, H460 cells, 8uM) of 65.1%, an inhibition at 16 µM ([2]; Homo sapiens, NCI-H460, read-out: Inhibitory efficacy, H460 cells, 16uM) of 88.9% and a p-AKT/AKT ([3]; H460, 0.1 uM) of 1.267. For the same compound, the “p-AKT/AKT relative to DMSO” value ([3]; H460, 0.1 uM) was 1.274, the p-AKT/AKT ([3]; H460, 1 uM) was 0.9055 and the “p-AKT/AKT relative to DMSO” value ([3]; H460, 1 uM) was 0.9102. The p-AKT/AKT ([3]; H460, 10 uM) was 0.594, the “p-AKT/AKT relative to DMSO” value ([3]; H460, 10 uM) was 0.5972 and the “phosphorylation of AKT (western blot)” value ([3]; H460, especially at 10 μM) was “suppressed”. For the same compound, the G0/G1 ([4]; H460, 4uM) was 46.77% and 59.95%, the G2/M ([4]; H460, 4uM) was 19.08% and 18.32% and 13.33% and the S ([4]; H460, 4uM) was 34.15% and 35.36% and 26.72%. The G0/G1 ([4]; H460, 8uM) was 49.59% and 63.38%, the G2/M ([4]; H460, 8uM) was 16.88% and 18.32% and 11.47% and the S ([4]; H460, 8uM) was 33.54% and 35.36% and 25.15%. For the same compound, the G0/G1 ([4]; H460, 12uM) was 47.32% and 46.51% and 62.09%, the S ([4]; H460, 12uM) was 32.63% and 19.41% and 25.2% and the “percentage of cells in the G0/G1 phase” value ([4]; H460, various concentrations, 12 h) was “induced higher percentages”. The G0/G1 ([5]; PC-9, 4uM) was 56.16 and 54.85 and 57.63, the G2/M ([5]; PC-9, 4uM) was 17.84 and 17.98 and 15.19 and the S ([5]; PC-9, 4uM) was 26.01 and 27.17 and 27.19. The G0/G1 ([5]; PC-9, 8uM) was 53.08 and 54.06 and 56.12, the G2/M ([5]; PC-9, 8uM) was 20.06 and 19.34 and 16.67 and the S ([5]; PC-9, 8uM) was 26.86 and 26.6 and 27.1. For the same compound, the G0/G1 ([5]; PC-9, 12uM) was 56.88 and 57.79 and 60.22, the G2/M ([5]; PC-9, 12uM) was 21.27 and 20.78 and 17.44 and the S ([5]; PC-9, 12uM) was 21.85 and 21.43 and 22.34. For the same compound, the “percentage of cells in the G0/G1 phase” value ([5]; PC-9, various concentrations, 24 h) was “induced higher percentages”, the p-EGFR/EGFR ([6]; PC-9, 0.1 uM) was 1.065 and the “p-EGFR/EGFR relative to DMSO” value ([6]; PC-9, 0.1 uM) was 0.9518. The p-EGFR/EGFR ([6]; PC-9, 1 uM) was 0.9522, the “p-EGFR/EGFR relative to DMSO” value ([6]; PC-9, 1 uM) was 0.8509 and the p-EGFR/EGFR ([6]; PC-9, 10 uM) was 0.4177. For the same compound, the “p-EGFR/EGFR relative to DMSO” value ([6]; PC-9, 10 uM) was 0.3732, the “phosphorylation of EGFR (western blot)” value ([6]; PC-9, especially at 10 μM) was “suppressed” and the “apoptotic morphology, Hoechst 33342 staining” value [7] was “exhibited features typical of apoptosis”. The IC50 ([8]; Homo sapiens, PC-9, 48 h, read-out: IC50 (μM) PC-9) was 6.36 ± 0.11 µM, the inhibition at 4 µM ([8]; Homo sapiens, PC-9, read-out: Inhibitory efficacy, PC-9, 4uM, single repeats (Repeat 1-3), given as fraction) was 21.3% and the inhibition at 8 µM ([8]; Homo sapiens, PC-9, read-out: Inhibitory efficacy, PC-9, 8uM, single repeats (Repeat 1-3), given as fraction) was 70.1%. For the same compound, the inhibition at 16 µM ([8]; Homo sapiens, PC-9, read-out: Inhibitory efficacy, PC-9, 16uM, single repeats (Repeat 1-3), given as fraction) was 88.6%, the Inhibitory efficacy ([8]; PC-9, 4uM, 4 µM) was 0.1587 and 0.2347 and the Inhibitory efficacy ([8]; PC-9, 8uM, 8 µM) was 0.6968 and 0.6771. The Inhibitory efficacy ([8]; PC-9, 16uM, 16 µM) was 0.8795 and 0.8884.
